Test results reported in patent publication US20200170291A1, “PROCESSES FOR PRODUCING LACTITOL GRANULATES AND GRANULATES PRODUCED THEREBY” (PARTICLE DYNAMICS INTERNATIONAL, LLC, priority 2017, published 2020).

Assay: MALVERN MASTERSIZER 2000 particle size (d10, d50, d90)
Format: physicochemical
Procedure: All particle size (PS) analyses were conducted using a ROTAP Particle Size Analyzer and a MALVERN MASTERSIZER 2000, except as otherwise indicated. All particle size data were measured in microns and analyzed via the MALVERN MASTERSIZER 2000.

OC[C@@H](O)[C@@H](O[C@@H]1O[C@H](CO)[C@H](O)[C@H](O)[C@H]1O)[C@H](O)[C@@H](O)CO [Drum No. 20]
PS d10 (listed as 20): 4.0 μ
PS d50 (listed as 20): 33.8 μ
PS d90 (listed as 20): 209.8 μ
Particle Size Span (listed as 20): 6.1

OC[C@@H](O)[C@@H](O[C@@H]1O[C@H](CO)[C@H](O)[C@H](O)[C@H]1O)[C@H](O)[C@@H](O)CO [Drum No. 21]
PS d10 (listed as 21): 5.0 μ
PS d50 (listed as 21): 50.8 μ
PS d90 (listed as 21): 290.2 μ
Particle Size Span (listed as 21): 5.6

OC[C@@H](O)[C@@H](O[C@@H]1O[C@H](CO)[C@H](O)[C@H](O)[C@H]1O)[C@H](O)[C@@H](O)CO [Drum No. 22]
PS d10 (listed as 22): 4.4 μ
PS d50 (listed as 22): 36.7 μ
PS d90 (listed as 22): 235.3 μ
Particle Size Span (listed as 22): 6.3

OC[C@@H](O)[C@@H](O[C@@H]1O[C@H](CO)[C@H](O)[C@H](O)[C@H]1O)[C@H](O)[C@@H](O)CO [Drum No. 24]
PS d10 (listed as 24): 5.4 μ
PS d50 (listed as 24): 53.1 μ
PS d90 (listed as 24): 289.0 μ
Particle Size Span (listed as 24): 5.3

OC[C@@H](O)[C@@H](O[C@@H]1O[C@H](CO)[C@H](O)[C@H](O)[C@H]1O)[C@H](O)[C@@H](O)CO [Drum No. 25]
PS d10 (listed as 25): 4.2 μ
PS d50 (listed as 25): 35.5 μ
PS d90 (listed as 25): 261.8 μ
Particle Size Span (listed as 25): 7.3

OC[C@@H](O)[C@@H](O[C@@H]1O[C@H](CO)[C@H](O)[C@H](O)[C@H]1O)[C@H](O)[C@@H](O)CO [Drum No. 26]
PS d10 (listed as 26): 4.4 μ
PS d50 (listed as 26): 40.8 μ
PS d90 (listed as 26): 298.4 μ
Particle Size Span (listed as 26): 7.2

OC[C@@H](O)[C@@H](O[C@@H]1O[C@H](CO)[C@H](O)[C@H](O)[C@H]1O)[C@H](O)[C@@H](O)CO [Drum No. 27]
PS d10 (listed as 27): 4.2 μ
PS d50 (listed as 27): 40.2 μ
PS d90 (listed as 27): 272.3 μ
Particle Size Span (listed as 27): '6.7

OC[C@@H](O)[C@@H](O[C@@H]1O[C@H](CO)[C@H](O)[C@H](O)[C@H]1O)[C@H](O)[C@@H](O)CO [Drum No. 28]
PS d10 (listed as 28): 4.6 μ
PS d50 (listed as 28): 40.4 μ
PS d90 (listed as 28): 263.7 μ
Particle Size Span (listed as 28): 6.4

OC[C@@H](O)[C@@H](O[C@@H]1O[C@H](CO)[C@H](O)[C@H](O)[C@H]1O)[C@H](O)[C@@H](O)CO [Drum No. 29]
PS d10 (listed as 29): 5.7 μ
PS d50 (listed as 29): 84.8 μ
PS d90 (listed as 29): 401.6 μ
Particle Size Span (listed as 29): 4.7
